# Molecular target: T1, P2X7 (Homo sapiens, UniProt Q99572)
# T1 construct: host or cells: SH-SY5Y
# T1 sequence (Q99572 1-595): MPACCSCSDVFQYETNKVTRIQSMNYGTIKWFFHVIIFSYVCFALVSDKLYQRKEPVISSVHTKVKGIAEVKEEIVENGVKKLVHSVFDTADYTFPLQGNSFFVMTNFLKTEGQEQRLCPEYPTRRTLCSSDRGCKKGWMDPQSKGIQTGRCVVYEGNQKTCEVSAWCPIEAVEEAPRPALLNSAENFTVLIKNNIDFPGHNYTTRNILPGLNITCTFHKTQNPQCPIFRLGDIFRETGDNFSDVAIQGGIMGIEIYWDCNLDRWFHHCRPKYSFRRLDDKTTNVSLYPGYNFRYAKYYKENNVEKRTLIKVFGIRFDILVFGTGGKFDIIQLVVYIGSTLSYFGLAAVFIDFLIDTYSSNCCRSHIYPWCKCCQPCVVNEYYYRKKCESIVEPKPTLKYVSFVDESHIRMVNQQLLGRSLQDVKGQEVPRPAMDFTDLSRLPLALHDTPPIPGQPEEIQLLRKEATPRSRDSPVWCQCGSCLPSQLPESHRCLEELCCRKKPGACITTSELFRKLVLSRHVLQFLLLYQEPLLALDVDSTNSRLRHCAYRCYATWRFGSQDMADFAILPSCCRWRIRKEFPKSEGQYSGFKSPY
# Test: High Throughput P2X7 Calcium Mobilization Assay (Example 4A), antagonist activity
# Assay type: cell-based
# Details: SH-SY5Y cells, 50% decrease in fluorescence response of cells exposed to 80 μM BzATP
# Description: A. High Throughput P2X7 Calcium Mobilization Assay
# SH-SY5Y cells, ATCC Number CRL-2266, (American Type Culture Collection, Manassas, Va.) are cultured under DMEM/High medium supplemented with 10% FBS, and 10 mM HEPES (Invitrogen Corp., Carlsbad, Calif.) in 5% CO2 and at 37° C. One day prior to the experiment, cells are plated at a density of 100,000 cells/well in a 96 well black/clear TC plate (Corning® Costar®, Sigma-Aldrich Co., St. Louis, Mo.). At the beginning of the experiment, the culture medium is removed and cells are incubated with 50 μL of 2.3 μM Fluo-4 AM dye (Invitrogen Corp.) in the assay solution (5 mM KCl, 9.6 mM NaH2PO4.H2O, 25 mM HEPES, 280 mM Sucrose, 5 mM Glucose, and 0.5 mM CaCl2; pH is adjusted to 7.4 with NaOH) for an hour at 37° C. After one hour dye incubation, wells are rinsed once with 50 μL assay solution, and are then incubated for an hour at room temperature with 100 μL assay solution containing the test compound. The final concentration of test compound generally ranges from 1 to 2500 nM; for positive control cells, no test compound is added. After the one hour incubation, plates are transferred to a FLIPR^TETRA instrument (Molecular Devices, Sunnyvale, Calif.) for calcium mobilization analysis.
# For determination of antagonist activity, 50 μL of P2X7 agonist (2′(3′)-O-(4-benzoyl-benzoyl)adenosine 5′-triphosephate (BzATP; Sigma-Aldrich) in the assay solution is transferred using the FLIPR into the plate, such that the final agonist concentration is 80 μM (about EC50). In negative control cells, 50 μL of assay solution without agonist is added at this stage. The peak fluorescence signal over a 2 minute period is then measured.
# First, the average maximum relative fluorescent unit (RFU) response from the negative control wells (no agonist) is subtracted from the maximum response detected for each of the other experimental wells. Second, average maximum RFU response is calculated for the positive control wells (agonist wells). Then, percent inhibition for each compound tested is calculated using the equation: Percent Inhibition=100−100×(Peak Signal in Test Cells/Peak Signal in Control Cells) The % inhibition data is plotted as a function of test compound concentration and test compound IC50 is determined using, for example, KALEIDAGRAPH software (Synergy Software, Reading, Pa.) best fit of the data to the equation: y=m1*(1/(1+(m2/m0)^m3)) where y is the percent inhibition, m0 is […], m1 is the maximum RFU, m2 corresponds to the test compound IC50 (the concentration required to provide a 50% decrease, relative to the response observed in the presence of agonist and without antagonist) and m3 is the Hill coefficient.
row,IC50,Structure (SMILES)
1,≤ 2 µM,"CN(Cc1cnccn1)C(=O)c1cc2c(C(=O)NCC34CC5CC(CC(C5)C3)C4)cccn2n1 [Compound 48, 4-N-(adamantan-1-ylmethyl)-2-N-methyl-2-N-(pyrazin-2-ylmethyl)pyrazolo[1,5-a]pyridine-2,4-dicarboxamide]"
2,≤ 2 µM,"CN(C(=O)c1cc2c(C(=O)NCC34CC5CC(CC(C5)C3)C4)cccn2n1)c1ccccn1 [Compound 19, 4-N-(adamantan-1-ylmethyl)-2-N-methyl-2-N-pyridin-2-ylpyrazolo[1,5-a]pyridine-2,4-dicarboxamide]"
3,≤ 2 µM,"Cn1ncc2c1CCN(C(=O)c1cc3c(C(=O)NCC45CC6CC(CC(C6)C4)C5)cccn3n1)C2 [Compound 34, N-(adamantan-1-ylmethyl)-2-[(1-methyl-1,4,6,7-tetrahydro-5H-pyrazolo[4,3-c]pyridin-5-yl)carbonyl]pyrazolo [1,5-a]pyridine-4-carboxamide]"
4,≤ 2 µM,"O=C1CC2(CCN(C(=O)c3cc4c(C(=O)NCC56CC7CC(CC(C7)C5)C6)cccn4n3)CC2)CN1 [Compound 40, N-(adamantan-1-ylmethyl)-2-[(3-oxo-2,8-diazaspiro[4.5]dec-8-yl)carbonyl]pyrazolo [1,5-a]pyridine-4-carboxamide]"
5,≤ 2 µM,"O=C(NCC12CC3CC(CC(C3)C1)C2)c1cccn2nc(CN3CCn4cncc4C3)cc12 [Compound 52, N-(adamantan-1-ylmethyl)-2-(5,6-dihydroimidazo[1,5-a]pyrazin-7(8H)-ylmethyl)pyrazolo[1,5-a]pyridine-4-carboxamide]"
6,≤ 2 µM,"O=C(O)CC(Cc1ccccc1)c1cc2c(C(=O)NCC34CC5CC(CC(C5)C3)C4)cccn2n1 (stereo not shown) [Compound 107, 3-{4-[(adamantan-1-ylmethyl)carbamoyl]pyrazolo[1,5-a]pyridin-2-yl}-4-phenylbutanoic acid]"
7,≤ 2 µM,"N[C@@H]1CCCN(C(=O)c2cc3c(C(=O)NCC45CC6CC(CC(C6)C4)C5)cccn3n2)C1 [Compound 17, N-(adamantan-1-ylmethyl)-2-{[(3R)-3-aminopiperidin-1-yl]carbonyl}pyrazolo [1,5-a]pyridine-4-carboxamide]"
8,≤ 2 µM,"CN(C)[C@@H]1CCN(C(=O)c2cc3c(C(=O)NCC45CC6CC(CC(C6)C4)C5)cccn3n2)C1 [Compound 27, N-(adamantan-1-ylmethyl)-2-{[(3R)-3-(dimethylamino)pyrrolidin-1-yl]carbonyl}pyrazolo [1,5-a]pyridine-4-carboxamide]"
9,≤ 2 µM,"CN(Cc1ccc(F)cc1)C(=O)c1cc2c(C(=O)NCC34CC5CC(CC(C5)C3)C4)cccn2n1 [Compound 67, 4-N-(adamantan-1-ylmethyl)-2-N-(4-fluorobenzyl)-2-N-methylpyrazolo[1,5-a]pyridine-2,4-dicarboxamide]"
10,≤ 2 µM,"O=C(O)CC(c1ccccc1)c1cc2c(C(=O)NCC34CC5CC(CC(C5)C3)C4)cccn2n1 (stereo not shown) [Compound 106, 3-{4-[(adamantan-1-ylmethyl)carbamoyl]pyrazolo[1,5-a]pyridin-2-yl}-3-phenylpropanoic acid]"
11,≤ 2 µM,"O=C(CC12CC3CC(CC(C3)C1)C2)Nc1cccn2nc(C(=O)N3CCn4cncc4C3)cc12 [Compound 97, 2-adamantan-1-yl-N-[2-(5,6-dihydroimidazo[1,5-a]pyrazin-7(8H)-ylcarbonyl)pyrazolo [1,5-a]pyridin-4-yl]acetamide]"
12,≤ 2 µM,"CC(C)CC(CNC(=O)c1cccn2nc(C(=O)N(C)CCF)cc12)c1ccc(Cl)cc1 (stereo not shown) [Compound 92, Pyrazolo[1,5-a]pyridine-2,4-dicarboxylic acid 4-{[2-(4-chloro-phenyl)-4-methyl-pentyl]-amide} 2-[(2-fluoro-ethyl)-methyl-amide]]"
13,≤ 2 µM,"CN(Cc1cncn1C)C(=O)c1cc2c(C(=O)NCC34CC5CC(CC(C5)C3)C4)cccn2n1 [Compound 26, 4-N-(adamantan-1-ylmethyl)-2-N-methyl-2-N-[(1-methyl-1H-imidazol-5-yl)methyl]pyrazolo[1,5-a]pyridine-2,4-dicarboxamide]"
14,≤ 2 µM,"O=C(NCC12CC3CC(CC(C3)C1)C2)c1cccn2nc(CC(=O)N3CCOCC3)cc12 [Compound 25, N-(adamantan-1-ylmethyl)-2-(2-morpholin-4-yl-2-oxoethyl)pyrazolo[1,5-a]pyridine-4-carboxamide]"
15,≤ 2 µM,"CC(C)CC(CNC(=O)c1cccn2nc(C(=O)N(C)CCF)cc12)c1ccc(C(F)(F)F)cc1 (stereo not shown) [Compound 86, 2-N-(2-fluoroethyl)-2-N-methyl-4-N-{4-methyl-2-[4-(trifluoromethyl)phenyl]pentyl}pyrazolo[1,5-a]pyridine-2,4-dicarboxamide]"
16,≤ 2 µM,"CN(CCF)C(=O)c1cc2c(C(=O)NCC3(c4ccc(Cl)cc4)CCCCC3)cccn2n1 [Compound 85, 4-N-{[1-(4-chlorophenyl)cyclohex-yl]methyl}-2-N-(2-fluoroethyl)-2-N-methylpyrazolo[1,5-a]pyridine-2,4-dicarboxamide]"
17,≤ 2 µM,"COCCCNC(=O)c1cc2c(C(=O)NCC34CC5CC(CC(C5)C3)C4)cccn2n1 [Compound 38, 4-N-(adamantan-1-ylmethyl)-2-N-(3-methoxypropyl)pyrazolo [1,5-a]pyridine-2,4-dicarboxamide]"
18,≤ 2 µM,"O=C(Cc1cc2c(C(=O)NCC34CC5CC(CC(C5)C3)C4)cccn2n1)NCCF [Compound 59, N-(adamantan-1-ylmethyl)-2-{2-[(2-fluoroethyl)amino]-2-oxoethyl}pyrazolo[1,5-a]pyridine-4-carboxamide]"
19,≤ 2 µM,"CN(CCF)C(=O)c1cc2c(NC(=O)CC34CC5CC(CC(C5)C3)C4)cccn2n1 [Compound 98, 4-[(adamantan-1-ylacetyl)amino]-N-(2-fluoroethyl)-N-methylpyrazolo[1,5-a]pyridine-2-carboxamide]"
20,≤ 2 µM,"CC(C)CC(CNC(=O)c1cccn2nc(C(=O)N3[C@H](C)COC[C@@H]3C)cc12)c1ccc(C(F)(F)F)cc1 (single isomer, unassigned) [Compound 102]"
21,≤ 2 µM,"CC(C)CC(CNC(=O)c1cccn2nc(C(=O)N3CC[C@@H](N)C3)cc12)c1ccc(C(F)(F)F)cc1 (stereo partly drawn) [Compound 80, 2-{[(3R)-3-aminopyrrolidin-1-yl]carbonyl}-N-{4-methyl-2-[4-(trifluoromethyl)phenyl]pentyl}pyrazolo[1,5-a]pyridine-4-carboxamide]"
22,≤ 2 µM,"O=C(NCCF)c1cc2c(C(=O)NCC34CC5CC(CC(C5)C3)C4)cccn2n1 [Compound 62, 4-N-(adamantan-1-ylmethyl)-2-N-(2-fluoroethyl)pyrazolo [1,5-a]pyridine-2,4-dicarboxamide]"
23,≤ 2 µM,"O=C(NCC12CC3CC(CC(C3)C1)C2)c1cccn2nc(C(=O)N3CCn4cncc4C3)cc12 [Compound 20, N-(adamantan-1-ylmethyl)-2-(5,6-dihydroimidazo[1,5-a]pyrazin-7(8H)-ylcarbonyl)pyrazolo [1,5-a]pyridine-4-carboxamide]"
24,≤ 2 µM,"CCN[C@@H]1CCN(C(=O)c2cc3c(C(=O)NCC45CC6CC(CC(C6)C4)C5)cccn3n2)C1 [Compound 47, N-(adamantan-1-ylmethyl)-2-{[(3R)-3-(ethylamino)pyrrolidin-1-yl]carbonyl}pyrazolo [1,5-a]pyridine-4-carboxamide]"

row,Structure (SMILES),IC50
1,"N#Cc1ccc(C(=O)c2ccc3c(C(=O)NCC45CC6CC(CC(C6)C4)C5)cccn23)cc1 [Compound 109, N-(adamantan-1-ylmethyl)-3-(4-cyanobenzoyl)indolizine-8-carboxamide]",≤ 2 µM

# Source: US8580812B2, “Heteroaryl amide analogues as P2X7 antagonists” (H. Lundbeck A/S, priority 2007, dated 2013)
